The assay concerns KM mice. Description: Test for drug-induced disappearance of righting reflex in mice. Particulars: single rapid bolus via tail vein. Format: in vivo. An excerpt:
In anesthetic drug experiments, latency generally refers to the time from the start of administration to the loss of consciousness of the subject. The shorter latency is preferred, indicating a rapid onset of action after administration. The duration of anesthesia generally refers to the duration of time from the loss of consciousness to the restoration of consciousness of the subject. The duration of the drug will vary from animal model to animal species. Too long anesthesia may produce adverse cardiovascular and respiratory responses, such as adverse neurological effects to the subject, including sleepiness and dizziness; meanwhile, too short duration of anesthesia may affect the anesthesia effect, causing problems such as increase of anesthesia dosage during the operation.
KM mice (female, 18-25 g) were randomly grouped and subjected to a single administration by rapid bolus via the tail vein. The latency and duration of disappearance of righting reflex in the mice were recorded.

`COC(=O)CC[C@@H]1N=C(c2ccccc2Cl)c2cc(Cl)ccc2-n2c(S)nnc21` [Compound 2, methyl (S)-3-(8-chloro-6-(2-chlorophenyl)-1-mercapto-4H-benzo[f][1,2,4]triazolo[4,3-a][1,4]diazepin-4-yl)propionate]: where the note is “30 mg/kg”, the Duration turned out to be 5.27 min and the Latency is given as 0.58 min.
On to `COC(=O)CC[C@@H]1N=C(c2ccccn2)c2cc(Br)ccc2-n2c(S)nnc21` [Compound 3, methyl (S)-3-(8-bromo-6-(pyridin-2-yl)-1-mercapto-4H-benzo[f][1,2,4]triazolo[4,3-a][1,4]diazepin-4-yl)propionate], for which, under “30 mg/kg”, the Duration was 7.37 min and the Latency is given as 0.48 min.
For `COC(=O)CC[C@@H]1N=C(c2ccccc2)c2ccccc2-n2c(S)nnc21` [Compound 5, methyl (S)-3-(6-phenyl-1-mercapto-4H-benzo[f][1,2,4]triazolo[4,3-a][1,4]diazepin-4-yl)propionate], in that order: 13.27 min and 1.11 min.
For `COC(=O)CC[C@@H]1N=C(c2ccc(F)cc2)c2ccccc2-n2c(S)nnc21` [Compound 6, methyl (S)-3-(6-(4-fluorophenyl)-1-mercapto-4H-benzo[f][1,2,4]triazolo[4,3-a][1,4]diazepin-4-yl)propionate], in that order: 9.93 min and 0.59 min.
With `COC(=O)CC[C@@H]1N=C(c2ccccc2)c2cc(Cl)ccc2-n2c(S)nnc21` [Compound 7, methyl (S)-3-(8-chloro-6-phenyl-1-mercapto-4H-benzo[f][1,2,4]triazolo[4,3-a][1,4]diazepin-4-yl)propionate], under “30 mg/kg”, the Duration is on record as 12.26 min and the Latency was found to be 1.14 min.
Where the note is “30 mg/kg”, `COC(=O)CC[C@@H]1N=C(c2ccccc2F)c2cc(Cl)ccc2-n2c(SC)nnc21` [Compound 8, methyl (S)-3-(8-chloro-6-(2-fluorophenyl)-1-(methylthio)-4H-benzo[f][1,2,4]triazolo[4,3-a][1,4]diazepin-4-yl)propionate] had a Duration of 8.35 min and a Latency of 0.36 min.
In the same order, the values of `COC(=O)CC[C@@H]1N=C(c2ccccc2F)c2cc(Br)ccc2-n2c(SC)nnc21` [Compound 9, methyl (S)-3-(8-bromo-6-(2-fluorophenyl)-1-(methylthio)-4H-benzo[f][1,2,4]triazolo[4,3-a][1,4]diazepin-4-yl)propionate] are 12.12 min and 0.84 min.
As for `CCSc1nnc2n1-c1ccc(Cl)cc1C(c1ccccc1F)=N[C@H]2CCC(=O)OC` [Compound 11, methyl (S)-3-(8-chloro-6-(2-fluorophenyl)-1-(ethylthio)-4H-benzo[f][1,2,4]triazolo[4,3-a][1,4]diazepin-4-yl)propionate], the Duration is, setting by setting: (30 mg/kg) 6.37 min; (60 mg/kg) 7.98 min. The Latency was 0.77 min (30 mg/kg) and 0.83 min (60 mg/kg).
Under “30 mg/kg”, `CCSc1nnc2n1-c1ccc(Br)cc1C(c1ccccc1F)=N[C@H]2CCC(=O)OC` [Compound 12, methyl (S)-3-(8-bromo-6-(2-fluorophenyl)-1-(ethylthio)-4H-benzo[f][1,2,4]triazolo[4,3-a][1,4]diazepin-4-yl)propionate] came in with a Duration of 17.21 min and a Latency of 0.74 min.
In the same order, the values of `CCCSc1nnc2n1-c1ccc(Cl)cc1C(c1ccccc1F)=N[C@H]2CCC(=O)OC` [Compound 14, methyl (S)-3-(8-chloro-6-(2-fluorophenyl)-1-(propylthio)-4H-benzo[f][1,2,4]triazolo[4,3-a][1,4]diazepin-4-yl)propionate] are 9.12 min and 0.78 min.
In the same order, the values of `CCCSc1nnc2n1-c1ccc(Br)cc1C(c1ccccc1F)=N[C@H]2CCC(=O)OC` [Compound 15, methyl (S)-3-(8-bromo-6-(2-fluorophenyl)-1-(propylthio)-4H-benzo[f][1,2,4]triazolo[4,3-a][1,4]diazepin-4-yl)propionate] are 8.47 min and 1.03 min.
For the setting “30 mg/kg”, `CCCSc1nnc2n1-c1ccc([N+](=O)[O-])cc1C(c1ccccc1F)=N[C@H]2CCC(=O)OC` [Compound 16, methyl (S)-3-(8-nitro-6-(2-fluorophenyl)-1-(propylthio)-4H-benzo[f][1,2,4]triazolo[4,3-a][1,4]diazepin-4-yl)propionate] came in with a Duration of 6.25 min and a Latency of 0.79 min. Moreover, under “60 mg/kg”, the Duration is 6.6 min and the Latency was 0.28 min.
Under “30 mg/kg”, `COC(=O)CC[C@@H]1N=C(c2ccccc2F)c2cc(Cl)ccc2-n2c(SCCO)nnc21` [Compound 17, methyl (S)-3-(8-chloro-6-(2-fluorophenyl)-1-((2-hydroxyethyl)thio)-4H-benzo[f][1,2,4]triazolo[4,3-a][1,4]diazepin-4-yl)propionate] registered a Duration of 15.35 min and a Latency of 1.09 min.
Under “30 mg/kg”, `COC(=O)CC[C@@H]1N=C(c2ccccc2F)c2cc(Br)ccc2-n2c(SCCO)nnc21` [Compound 18, methyl (S)-3-(8-bromo-6-(2-fluorophenyl)-1-((2-hydroxyethyl)thio)-4H-benzo[f][1,2,4]triazolo[4,3-a][1,4]diazepin-4-yl)propionate] gave a Duration of 4.74 min and a Latency of 0.31 min. For the same molecule, where the note is “60 mg/kg”, the Duration is on record as 9.16 min and the Latency came out at 0.33 min.
Under “30 mg/kg”, `COC(=O)CC[C@@H]1N=C(c2ccccc2F)c2cc([N+](=O)[O-])ccc2-n2c(SCCO)nnc21` [Compound 19, methyl (S)-3-(8-nitro-6-(2-fluorophenyl)-1-((2-hydroxyethyl)thio)-4H-benzo[f][1,2,4]triazolo[4,3-a][1,4]diazepin-4-yl)propionate] registered a Duration of 16.22 min and a Latency of 0.89 min.
Where the note is “30 mg/kg”, `COC(=O)CC[C@@H]1N=C(c2ccccc2F)c2cc(Cl)ccc2-n2c(SCCN)nnc21` [Compound 20, methyl (S)-3-(8-chloro-6-(2-fluorophenyl)-1-((2-aminoethyl)thio)-4H-benzo[f][1,2,4]triazolo[4,3-a][1,4]diazepin-4-yl)propionate] returned a Duration of 9.82 min and a Latency of 0.27 min.
Under “30 mg/kg”, `COC(=O)CC[C@@H]1N=C(c2ccccc2F)c2cc(Br)ccc2-n2c(SCCN)nnc21` [Compound 21, methyl (S)-3-(8-bromo-6-(2-fluorophenyl)-1-((2-aminoethyl)thio)-4H-benzo[f][1,2,4]triazolo[4,3-a][1,4]diazepin-4-yl)propionate] registered a Duration of 2.83 min and a Latency of 0.35 min. Under “60 mg/kg”, this molecule yielded a Duration of 6.4 min and a Latency of 0.2 min.
Under “30 mg/kg”, `COC(=O)CC[C@@H]1N=C(c2ccccc2F)c2cc([N+](=O)[O-])ccc2-n2c(SCCN)nnc21` [Compound 22, methyl (S)-3-(8-nitro-6-(2-fluorophenyl)-1-((2-aminoethyl)thio)-4H-benzo[f][1,2,4]triazolo[4,3-a][1,4]diazepin-4-yl)propionate] gave a Duration of 6.53 min and a Latency of 0.58 min.
